Measured values published in patent US20150231109A1, “COMBINATIONS (CATECHINS AND METHOTREXATE) FOR USE IN THE TREATMENT OF MELANOMAS” (UNIVERSIDAD DE MURCIA, priority 2012, published 2015).
Marks after values point to notes of the source that are not given here.

Tests used:
Assay type in all cases: cell-based, human
SK-MEL-28 melanoma cells = assay: HPLC/MS analyses of MTX, TMECG-QM and DHF in whole cell extracts; conditions: SK-MEL-28 whole cell extracts, 24 h, MTX 1 μM and/or TMECG 10 μM
Protocol: By way of example, the present inventors have shown that an active agent, such as MTX, may be used to increase TYR expression, thereby increasing the conversion of a catechin to its quinone methide form. The inventors have undertaken HPLC analyses of MTX, TMECG-QM, and DHF in whole cell extracts of SK-MEL-28 melanoma cells that were subjected to MTX (1 μM) and TMECG (10 μM) individual and combined treatments (see Table 1).

SK-MEL-28 cells = assay: Apoptosis assay (cytoplasmic histone-associated DNA fragmentation ELISA), SK-MEL-28; conditions: SK-MEL-28, MTX alone
Protocol: FIGS. 2A-N. MTX and TMECG combination therapy induces apoptosis via dTTP depletion and DNA-damage. A, Intracellular accumulation of TMECG-QM in SK-MEL-28 treated with TMECG or MTX/TMECG for 24 h. B, Proliferation assays performed of control or MTX/TMECG-treated (10 μM/1 μM) SK-MEL-28 cells. C, Quantification of effects of MTX/TMECG treatment on SK-MEL-28 cells (*P<0.05 with respect to TMECG-treated cells). For time course assay MTX (1 μM) and TMECG (10 μM) were used. D, dNTP quantification in melanoma cells subjected to indicated treatments (*P<0.05). […] K, quantification of γH2AX foci in SK-MEL-28 cells treated with MTX (1 μM) and/or TMECG (10 μM), or X-rays. […] N, Cell cycle profile determined by flow cytometry of SK-MEL-28 cells treated with a sublethal dose of MTX/TMECG. […]
The induction of apoptosis was assessed by performing cytoplasmic histone-associated DNA fragmentation using a kit from Roche Diagnostics (Barcelona, Spain). […] The amount of nucleosomes is photometrically quantified at 405 nm by the peroxidase activity retained in the immunocomplexes. Apoptosis was defined as the specific enrichment of mono- and oligonucleosomes in the cytoplasm and was calculated by dividing the absorbance of treated samples by the absorbance of untreated samples after correcting for the number of cells. […]

E2F1 = assay: MALDI-TOF mass spectroscopy of immunoprecipitated E2F1 tryptic digests from SK-MEL-28 cells; conditions: SK-MEL-28, 24 h, normalized to internal matrix control
Protocol: SK-MEL-28 whole cell lysates were immunoprecipitated as described above but with two variations. First, the lysis and dilution buffers contained 2.5 μM trichostatin (a potent deacetylase inhibitor) and 20 μM trans-2-phenylcyclo-propylamine (an irreversible inhibitor of lysine-specific demethylase 1, LSD1). Second, the E2F1 antibody was covalently coupled to Dynabeads® (Invitrogen). After immunoprecipitation and elution, bound proteins were digested with trypsin according to standard procedures (Shevchenko). Data were recorded and processed with Agilent MassHunter Workstation Software for obtaining the Peptide Mass Fingerprint (PMF). The PMF result mass spectra were searched against the E2F1 protein sequence with carbamidomethylation of cysteine as fixed modification and methylation and acetylation of lysine residues, oxidation of methionine residues and phosphorylation of serine residues as variable modifications. Peptide mass tolerance was set to 50 ppm and a maximum of three missed cleavages was considered.

How did the MTX intracellular concentration (SK-MEL-28 melanoma cells) turn out when `CN(Cc1cnc2nc(N)nc(N)c2n1)c1ccc(C(=O)N[C@@H](CCC(=O)O)C(=O)O)cc1` [MTX, methotrexate] was run?
Its MTX intracellular concentration is <0.001* pmol/10^6 cells.

What about the induction of apoptosis (SK-MEL-28 cells) of the same compound?
Its induction of apoptosis is “did not induce apoptosis”.

What about the “Intensity of phosphorylated (S364) E2F1 peptide” value (E2F1; CN 11) of the same compound?
Its value is 24.

And the “Intensity of phosphorylated (S31) E2F1 peptide” value (E2F1; CN 46)?
The value was 12.

What about the “Intensity of hyperacetylated (K117,120,125) E2F1 peptide” value (E2F1; CN 49) of the same compound?
The value was 329.

And the “Intensity of non-methylated (K185) E2F1 peptide (K)NHIQWLGSHTTVGVGGR(L)” value (E2F1; CN 64)?
The value was 379.

And the “Intensity of non-phosphorylated (S31) E2F1 peptide” value (E2F1; CN 295)?
Its value is 312.

And the “Intensity of non-phosphorylated (S364) E2F1 peptide” value (E2F1; CN 318)?
Its value is 310.

And the “Intensity of non-acetylated E2F1 peptide (K)SPGEK(S)” value (E2F1; CN 320)?
The value was 20.

And the “Intensity of non-acetylated E2F1 peptide (R)HPGK(G)” value (E2F1; CN 325)?
Its value is 16.

And the “Intensity of methylated (K185) E2F1 peptide” value (E2F1; CN 355)?
Its value is 18.
